# Experimental data from patent US20080200403A1, “9A-Carbamoyl and Thiocarbamoyl Azalides with Anti-Inflammatory Activity” (GLAXOSMITHKLINE, priority 2005, published 2008).
# Where two headings read alike, the source gives them in different places.
# Assays:
# Format in all cases: cell-based
# Hep G2 = test: MTT cytotoxicity assay on Hep G2 cell line; conditions: human, 24 h
# Protocol: To determine whether the anti-inflammatory activity of the test compounds was due to observed inhibition of cytokine production and inhibition of proliferation in vitro, and was not a consequence of cellular cytotoxicity, measurement of succinate dehydrogenase activity in living cells was performed. Cells were cultured for 24 h in RPMI medium as described above at 37° C. in the presence of the test compounds at concentrations of 50 μM and 12.5 μM. MTT [3-(4,5-dimethylthiazole-2-yl)-2,5-diphenyl tetrazolium bromide] (Promega, USA), a detection reagent, was then added and the cultures were incubated for 0.5-2 h. The amount of MTT-Formazan produced was determined using a spectrophotometer at 490 nm (Mosmann, J. Imnunol. Methods, 1983, 65: 55-63). Percentage of viable cells was calculated using the following formula:
# % viable cells=([…]OD490 treated cells/OD490 nontreated cells)×100
# IL-8 = test: Inhibition of IL-8 production by stimulated human peripheral blood leukocytes in vitro; conditions: PBL; for inhibition at 10 µM / inhibition at 50 µM: Homo sapiens, Leukocyte, read-out: Percentage of inhibition of IL-8 production
# Procedure, shortened: (§1)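 Dextran-isolated human PBL (3-5×10^6 per well) in RPMI with 10% FCS were preincubated 2 h at 37 °C with compounds at 50 μM or 10 μM final, then stimulated overnight with 2 μg/mL LPS, 1 μg/mL PMA or 120 μg/mL zymosan. Supernatant cytokines by sandwich ELISA; % inhibition versus stimulated untreated control.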
# [1] = test system: human peripheral blood mononuclear cells (PBMC); test: Human T-cell proliferation in vitro (3H-thymidine incorporation); conditions: for inhibition at 10 µM / inhibition at 50 µM: Homo sapiens, PBMC, read-out: Percentage of inhibition of proliferation of stimulated PBMC
# Procedure, shortened: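 Donor PBMC isolated on Histopaque, 5×10^4 cells/well cultured 3 days at 37 °C with PHA (2.5 μg/mL) or PMA (10 ng/mL) plus ionomycin (500 ng/mL), and compound at 50 μM or 10 μM. 3H-thymidine pulse during final 18 h; % inhibition versus stimulated untreated cpm.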
# IL-1α = test: Inhibition of IL-1 production by stimulated human peripheral blood leukocytes in vitro; conditions: PBL; for inhibition at 10 µM / inhibition at 50 µM: Homo sapiens, Leukocyte, read-out: Percentage of inhibition of IL-1α production
# TNF-α = test: Inhibition of TNF-α production by stimulated human peripheral blood leukocytes in vitro; conditions: PBL; for inhibition at 10 µM / inhibition at 50 µM: Homo sapiens, Leukocyte, read-out: Percentage of inhibition of TNF-α production
# Procedure, shortened: as §1
# IL-6 = test: Inhibition of IL-6 production by stimulated human peripheral blood leukocytes in vitro; conditions: PBL; for inhibition at 10 µM / inhibition at 50 µM: Homo sapiens, Leukocyte, read-out: Percentage of inhibition of IL-6 production
# Procedure, shortened: as §1
# [2] = zymosan stimulated, compound 10 μM
# [3] = zymosan stimulated, compound 50 μM
# [4] = PMA + ionomycin stimulated, compound 10 μM
# [5] = PMA + ionomycin stimulated, compound 50 μM
smiles,measurement,setting,value
"CC[C@H]1OC(=O)[C@H](C)[C@@H](O[C@H]2C[C@@](C)(OC)[C@@H](O)[C@H](C)O2)[C@H](C)[C@@H](O[C@@H]2O[C@H](C)C[C@H](N(C)C)[C@H]2O)[C@](C)(O)C[C@@H](C)CN(C)[C@H](C)[C@@H](O)[C@]1(C)O [Azithromycin, azithromycin, reference compound]",Percentage of viable cells after treatment,Hep G2; 12.5 μM,100%
same,Percentage of viable cells after treatment,Hep G2; 50 μM,>95%
same,inhibition at 10 µM,"IL-8; LPS stimulated, compound 10 μM",0%
same,inhibition at 50 µM,"IL-8; LPS stimulated, compound 50 μM",0%
same,inhibition at 10 µM,"IL-8; PMA stimulated, compound 10 μM",0%
same,inhibition at 50 µM,"IL-8; PMA stimulated, compound 50 μM",0%
same,inhibition at 10 µM,IL-8; [2],0%
same,inhibition at 50 µM,IL-8; [3],0%
same,inhibition at 10 µM,"[1]; PHA stimulated, compound 10 μM",5%
same,inhibition at 50 µM,"[1]; PHA stimulated, compound 50 μM",29%
same,inhibition at 10 µM,[1]; [4],9%
same,inhibition at 50 µM,[1]; [5],31%
same,inhibition at 10 µM,"IL-1α; LPS stimulated, compound 10 μM",28%
same,inhibition at 50 µM,"IL-1α; LPS stimulated, compound 50 μM",48%
same,inhibition at 10 µM,"IL-1α; PMA stimulated, compound 10 μM",0%
same,inhibition at 50 µM,"IL-1α; PMA stimulated, compound 50 μM",0%
same,inhibition at 10 µM,IL-1α; [2],20%
same,inhibition at 50 µM,IL-1α; [3],75%
same,inhibition at 10 µM,"TNF-α; LPS stimulated, compound 10 μM",36%
same,inhibition at 50 µM,"TNF-α; LPS stimulated, compound 50 μM",20%
same,inhibition at 10 µM,"TNF-α; PMA stimulated, compound 10 μM",0%
same,inhibition at 50 µM,"TNF-α; PMA stimulated, compound 50 μM",0%
same,inhibition at 10 µM,TNF-α; [2],6%
same,inhibition at 50 µM,TNF-α; [3],64%
same,inhibition at 10 µM,"IL-6; LPS stimulated, compound 10 μM",15%
same,inhibition at 50 µM,"IL-6; LPS stimulated, compound 50 μM",40%
same,inhibition at 10 µM,"IL-6; PMA stimulated, compound 10 μM",0%
same,inhibition at 50 µM,"IL-6; PMA stimulated, compound 50 μM",0%
same,inhibition at 10 µM,IL-6; [2],20%
same,inhibition at 50 µM,IL-6; [3],75%
"CC[C@H]1OC(=O)[C@H](C)[C@@H](O[C@H]2C[C@@](C)(OC)[C@@H](O)[C@H](C)O2)[C@H](C)[C@@H](O[C@@H]2O[C@H](C)C[C@H](N(C)C)[C@H]2O)[C@](C)(OC)C[C@@H](C)C(=O)[C@H](C)[C@@H](O)[C@]1(C)O [Clarithromycin, clarithromycin, reference compound]",Percentage of viable cells after treatment,Hep G2; 12.5 μM,100%
same,Percentage of viable cells after treatment,Hep G2; 50 μM,100%
same,inhibition at 10 µM,"IL-8; LPS stimulated, compound 10 μM",23%
same,inhibition at 50 µM,"IL-8; LPS stimulated, compound 50 μM",0%
same,inhibition at 10 µM,"IL-8; PMA stimulated, compound 10 μM",33%
same,inhibition at 50 µM,"IL-8; PMA stimulated, compound 50 μM",0%
same,inhibition at 10 µM,IL-8; [2],0%
same,inhibition at 50 µM,IL-8; [3],0%
same,inhibition at 10 µM,"[1]; PHA stimulated, compound 10 μM",0%
same,inhibition at 50 µM,"[1]; PHA stimulated, compound 50 μM",7%
same,inhibition at 10 µM,[1]; [4],9%
same,inhibition at 50 µM,[1]; [5],14%
same,inhibition at 10 µM,"IL-1α; LPS stimulated, compound 10 μM",0%
same,inhibition at 50 µM,"IL-1α; LPS stimulated, compound 50 μM",0%
same,inhibition at 10 µM,"IL-1α; PMA stimulated, compound 10 μM",26%
same,inhibition at 50 µM,"IL-1α; PMA stimulated, compound 50 μM",33%
same,inhibition at 10 µM,IL-1α; [2],36%
same,inhibition at 50 µM,IL-1α; [3],59%
same,inhibition at 10 µM,"TNF-α; LPS stimulated, compound 10 μM",0%
same,inhibition at 50 µM,"TNF-α; LPS stimulated, compound 50 μM",0%
same,inhibition at 10 µM,"TNF-α; PMA stimulated, compound 10 μM",0%
same,inhibition at 50 µM,"TNF-α; PMA stimulated, compound 50 μM",0%
same,inhibition at 10 µM,TNF-α; [2],0%
same,inhibition at 50 µM,TNF-α; [3],0%
same,inhibition at 10 µM,"IL-6; LPS stimulated, compound 10 μM",11%
same,inhibition at 50 µM,"IL-6; LPS stimulated, compound 50 μM",0%
same,inhibition at 10 µM,"IL-6; PMA stimulated, compound 10 μM",0%
same,inhibition at 50 µM,"IL-6; PMA stimulated, compound 50 μM",0%
same,inhibition at 10 µM,IL-6; [2],28%
same,inhibition at 50 µM,IL-6; [3],0%
CCC1OC(=O)C(C)C(O)C(C)C(OC2OC(C)CC(N(C)C)C2O)C(C)(O)CC(C)CN(C(=S)NCc2ccccc2)C(C)C(O)C1(C)O (stereo not drawn) [Compound 1],Percentage of inhibition of IL-8 production,"IL-8; LPS stimulated, compound 10 μM",40%
same,Percentage of inhibition of IL-8 production,"IL-8; LPS stimulated, compound 50 μM",0%
same,Percentage of inhibition of IL-8 production,"IL-8; PMA stimulated, compound 10 μM",4%
same,Percentage of inhibition of IL-8 production,"IL-8; PMA stimulated, compound 50 μM",0%
same,Percentage of inhibition of IL-8 production,IL-8; [2],12%
same,Percentage of inhibition of IL-8 production,IL-8; [3],79%
same,Percentage of inhibition of proliferation of stimulated PBMC,"[1]; PHA stimulated, compound 10 μM",21%
same,Percentage of inhibition of proliferation of stimulated PBMC,"[1]; PHA stimulated, compound 50 μM",95%
same,Percentage of inhibition of proliferation of stimulated PBMC,[1]; [4],10%
same,Percentage of inhibition of proliferation of stimulated PBMC,[1]; [5],52%
same,Percentage of inhibition of IL-1α production,"IL-1α; LPS stimulated, compound 10 μM",52%
same,Percentage of inhibition of IL-1α production,"IL-1α; LPS stimulated, compound 50 μM",78%
same,Percentage of inhibition of IL-1α production,"IL-1α; PMA stimulated, compound 10 μM",38%
same,Percentage of inhibition of IL-1α production,"IL-1α; PMA stimulated, compound 50 μM",47%
same,Percentage of inhibition of IL-1α production,IL-1α; [2],65%
same,Percentage of inhibition of IL-1α production,IL-1α; [3],57%
same,Percentage of inhibition of TNF-α production,"TNF-α; LPS stimulated, compound 10 μM",0%
same,Percentage of inhibition of TNF-α production,"TNF-α; LPS stimulated, compound 50 μM",33%
same,Percentage of inhibition of TNF-α production,"TNF-α; PMA stimulated, compound 10 μM",2%
same,Percentage of inhibition of TNF-α production,"TNF-α; PMA stimulated, compound 50 μM",37%
same,Percentage of inhibition of TNF-α production,TNF-α; [2],34%
same,Percentage of inhibition of TNF-α production,TNF-α; [3],72%
same,Percentage of inhibition of IL-6 production,"IL-6; LPS stimulated, compound 10 μM",4%
same,Percentage of inhibition of IL-6 production,"IL-6; LPS stimulated, compound 50 μM",22%
same,Percentage of inhibition of IL-6 production,"IL-6; PMA stimulated, compound 10 μM",22%
same,Percentage of inhibition of IL-6 production,"IL-6; PMA stimulated, compound 50 μM",21%
same,Percentage of inhibition of IL-6 production,IL-6; [2],23%
same,Percentage of inhibition of IL-6 production,IL-6; [3],59%
CC[C@H]1OC(=O)[C@H](C)[C@@H](O[C@H]2C[C@@](C)(OC)[C@@H](O)[C@H](C)O2)[C@H](C)[C@@H](O[C@@H]2O[C@H](C)C[C@H](N(C)C)[C@H]2O)[C@](C)(O)C[C@@H](C)CN(C(=S)Nc2cccc(C(F)(F)F)c2)[C@H](C)[C@@H](O)[C@]1(C)O [Compound 4],inhibition at 10 µM,"IL-8; LPS stimulated, compound 10 μM",41%
same,inhibition at 50 µM,"IL-8; LPS stimulated, compound 50 μM",100%
same,inhibition at 10 µM,"IL-8; PMA stimulated, compound 10 μM",52%
same,inhibition at 50 µM,"IL-8; PMA stimulated, compound 50 μM",100%
same,inhibition at 10 µM,IL-8; [2],0%
same,inhibition at 50 µM,IL-8; [3],52%
same,inhibition at 10 µM,"[1]; PHA stimulated, compound 10 μM",30%
same,inhibition at 50 µM,"[1]; PHA stimulated, compound 50 μM",102%
same,inhibition at 10 µM,[1]; [4],50%
same,inhibition at 50 µM,[1]; [5],100%
same,inhibition at 10 µM,"IL-1α; LPS stimulated, compound 10 μM",74%
same,inhibition at 50 µM,"IL-1α; LPS stimulated, compound 50 μM",82%
same,inhibition at 10 µM,"IL-1α; PMA stimulated, compound 10 μM",54%
same,inhibition at 50 µM,"IL-1α; PMA stimulated, compound 50 μM",92%
same,inhibition at 10 µM,IL-1α; [2],60%
same,inhibition at 50 µM,IL-1α; [3],13%
same,inhibition at 10 µM,"TNF-α; LPS stimulated, compound 10 μM",39%
same,inhibition at 50 µM,"TNF-α; LPS stimulated, compound 50 μM",100%
same,inhibition at 10 µM,"TNF-α; PMA stimulated, compound 10 μM",50%
same,inhibition at 50 µM,"TNF-α; PMA stimulated, compound 50 μM",100%
same,inhibition at 10 µM,TNF-α; [2],36%
same,inhibition at 50 µM,TNF-α; [3],97%
same,inhibition at 10 µM,"IL-6; LPS stimulated, compound 10 μM",38%
same,inhibition at 50 µM,"IL-6; LPS stimulated, compound 50 μM",100%
same,inhibition at 10 µM,IL-6; [2],0%
same,inhibition at 50 µM,IL-6; [3],100%
